# Experimental data as given in PubChem BioAssay (NCI).
#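 Five concentrations, 48 hours, 96-well plates. Abbreviation: GI50, concentration required for 50% inhibition of growth. TGI marks complete inhibition of growth.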
# Key:
# Test in all cases: growth of human tumour cells (NCI), 48 h
# [1] = test system: SR leukemia
# [2] = test system: NCI/ADR-RES ovarian
# [3] = test system: SK-MEL-2 melanoma
# [4] = test system: HCC-2998 colon
# [5] = test system: SF-295 CNS
# [6] = test system: SK-MEL-28 melanoma
# [7] = test system: UO-31 renal
# [8] = test system: SN12C renal
# [9] = test system: CCRF-CEM leukemia
# [10] = test system: 786-0 renal
# [11] = test system: RXF 393 renal
# [12] = test system: RPMI-8226 leukemia
# [13] = test system: LOX IMVI melanoma
# [14] = test system: SK-OV-3 ovarian
# [15] = test system: HCT-15 colon
# [16] = test system: OVCAR-4 ovarian
# [17] = test system: A549 NSCLC
# [18] = test system: NCI-H226 lung
# [19] = test system: MOLT-4 leukemia
# [20] = test system: NCI-H23 lung
# [21] = test system: SW-620 colon
# [22] = test system: SF-539 CNS
# [23] = test system: SNB-75 CNS
# [24] = test system: HCT-116 colon
# [25] = test system: ACHN renal
# [26] = test system: HT29 colon
# [27] = test system: IGROV1 ovarian
# [28] = test system: MDA-MB-231 breast
# [29] = test system: SNB-19 CNS
# [30] = test system: U251 CNS
# [31] = test system: K-562 leukemia
# [32] = test system: EKVX NSCLC
# [33] = test system: CAKI-1 renal
# [34] = test system: M14 melanoma
# [35] = test system: HS 578T breast
# [36] = test system: OVCAR-8 ovarian
# [37] = test system: BT-549 breast
# [38] = test system: UACC-62 melanoma
# [39] = test system: HOP-92 NSCLC
# [40] = test system: DU-145 prostate
# [41] = test system: NCI-H460 lung
# [42] = test system: MCF7 breast
# [43] = test system: T-47D breast
# [44] = test system: OVCAR-3 ovarian
# [45] = test system: OVCAR-5 ovarian
# [46] = test system: TK-10 renal
# [47] = test system: A498 renal
# [48] = test system: SF-268 CNS
# [49] = test system: UACC-257 melanoma
# [50] = test system: HOP-62 NSCLC
# [51] = test system: COLO 205 colon
# [52] = test system: HL-60(TB) leukemia
# [53] = test system: KM12 colon
# [54] = test system: PC-3 prostate
# [55] = test system: NCI-H522 lung
# [56] = test system: SK-MEL-5 melanoma
compound,measurement,setting,value
Nc1c(C(=O)Nc2cccc3ccccc23)sc2nc3c(cc12)CCCC3,GI50,[1],0.267 µM
same,TGI,[1],6.38 µM
same,GI50,[2],0.833 µM
same,TGI,[2],> 100 µM
same,GI50,[3],1.04 µM
same,TGI,[3],> 100 µM
same,GI50,[4],4.17 µM
same,TGI,[4],> 100 µM
same,GI50,[5],0.621 µM
same,TGI,[5],> 100 µM
same,GI50,[6],19.2 µM
same,TGI,[6],> 100 µM
same,GI50,[7],3.47 µM
same,TGI,[7],> 100 µM
same,GI50,[8],6 µM
same,TGI,[8],> 100 µM
same,GI50,[9],0.658 µM
same,TGI,[9],> 100 µM
same,GI50,[10],1.11 µM
same,TGI,[10],> 100 µM
same,GI50,[11],2.77 µM
same,TGI,[11],> 100 µM
same,GI50,[12],2.77 µM
same,TGI,[12],> 100 µM
same,GI50,[13],1.75 µM
same,TGI,[13],> 100 µM
same,GI50,[14],1.54 µM
same,TGI,[14],> 100 µM
same,GI50,[15],0.565 µM
same,TGI,[15],> 100 µM
same,GI50,[16],1.11 µM
same,TGI,[16],> 100 µM
same,GI50,[17],3.33 µM
same,TGI,[17],> 100 µM
same,GI50,[18],17.5 µM
same,TGI,[18],> 100 µM
same,GI50,[19],0.637 µM
same,TGI,[19],> 100 µM
same,GI50,[20],3.43 µM
same,TGI,[20],> 100 µM
same,GI50,[21],0.552 µM
same,TGI,[21],> 100 µM
same,GI50,[22],1.45 µM
same,TGI,[22],> 100 µM
same,GI50,[23],1.04 µM
same,TGI,[23],> 100 µM
same,GI50,[24],0.8 µM
same,TGI,[24],> 100 µM
same,GI50,[25],4.37 µM
same,TGI,[25],> 100 µM
same,GI50,[26],1.18 µM
same,TGI,[26],> 100 µM
same,GI50,[27],2.34 µM
same,TGI,[27],> 100 µM
same,GI50,[28],5.23 µM
same,TGI,[28],> 100 µM
same,GI50,[29],4.12 µM
same,TGI,[29],> 100 µM
same,GI50,[30],0.781 µM
same,TGI,[30],> 100 µM
same,GI50,[31],0.349 µM
same,TGI,[31],> 100 µM
same,GI50,[32],4.47 µM
same,TGI,[32],> 100 µM
same,GI50,[33],5.9 µM
same,TGI,[33],> 100 µM
same,GI50,[34],0.464 µM
same,TGI,[34],> 100 µM
same,GI50,[35],0.852 µM
same,TGI,[35],> 100 µM
same,GI50,[36],4.56 µM
same,TGI,[36],> 100 µM
same,GI50,[37],1.4 µM
same,TGI,[37],17.2 µM
same,GI50,[38],0.716 µM
same,TGI,[38],> 100 µM
same,GI50,[39],0.0769 µM
same,TGI,[39],9.29 µM
same,GI50,[40],2.62 µM
same,TGI,[40],> 100 µM
same,GI50,[41],2.98 µM
same,TGI,[41],> 100 µM
same,GI50,[42],0.0577 µM
same,TGI,[42],> 100 µM
same,GI50,[43],0.44 µM
same,TGI,[43],90.5 µM
same,GI50,[44],0.577 µM
same,TGI,[44],> 100 µM
same,GI50,[45],> 100 µM
same,TGI,[45],> 100 µM
same,GI50,[46],14.6 µM
same,TGI,[46],> 100 µM
same,GI50,[47],0.366 µM
same,TGI,[47],7.78 µM
same,GI50,[48],3.74 µM
same,TGI,[48],> 100 µM
same,GI50,[49],40.5 µM
same,TGI,[49],> 100 µM
same,GI50,[50],2.16 µM
same,TGI,[50],> 100 µM
same,GI50,[51],2.45 µM
same,TGI,[51],9.53 µM
same,GI50,[52],0.233 µM
same,TGI,[52],0.802 µM
same,GI50,[53],0.675 µM
same,TGI,[53],> 100 µM
same,GI50,[54],1.8 µM
same,TGI,[54],> 100 µM
same,GI50,[55],0.417 µM
same,TGI,[55],4.6 µM
same,GI50,[56],0.459 µM
same,TGI,[56],10.7 µM
